In data set [1] the target is T1, ACE (Rattus norvegicus, UniProt P47820).
T1 construct: membrane fraction prepared from rat lung; from tissue; host or cells: rat lung, membrane fraction (method of Wu-Wong et al.)
T1 sequence (P47820 36-1313): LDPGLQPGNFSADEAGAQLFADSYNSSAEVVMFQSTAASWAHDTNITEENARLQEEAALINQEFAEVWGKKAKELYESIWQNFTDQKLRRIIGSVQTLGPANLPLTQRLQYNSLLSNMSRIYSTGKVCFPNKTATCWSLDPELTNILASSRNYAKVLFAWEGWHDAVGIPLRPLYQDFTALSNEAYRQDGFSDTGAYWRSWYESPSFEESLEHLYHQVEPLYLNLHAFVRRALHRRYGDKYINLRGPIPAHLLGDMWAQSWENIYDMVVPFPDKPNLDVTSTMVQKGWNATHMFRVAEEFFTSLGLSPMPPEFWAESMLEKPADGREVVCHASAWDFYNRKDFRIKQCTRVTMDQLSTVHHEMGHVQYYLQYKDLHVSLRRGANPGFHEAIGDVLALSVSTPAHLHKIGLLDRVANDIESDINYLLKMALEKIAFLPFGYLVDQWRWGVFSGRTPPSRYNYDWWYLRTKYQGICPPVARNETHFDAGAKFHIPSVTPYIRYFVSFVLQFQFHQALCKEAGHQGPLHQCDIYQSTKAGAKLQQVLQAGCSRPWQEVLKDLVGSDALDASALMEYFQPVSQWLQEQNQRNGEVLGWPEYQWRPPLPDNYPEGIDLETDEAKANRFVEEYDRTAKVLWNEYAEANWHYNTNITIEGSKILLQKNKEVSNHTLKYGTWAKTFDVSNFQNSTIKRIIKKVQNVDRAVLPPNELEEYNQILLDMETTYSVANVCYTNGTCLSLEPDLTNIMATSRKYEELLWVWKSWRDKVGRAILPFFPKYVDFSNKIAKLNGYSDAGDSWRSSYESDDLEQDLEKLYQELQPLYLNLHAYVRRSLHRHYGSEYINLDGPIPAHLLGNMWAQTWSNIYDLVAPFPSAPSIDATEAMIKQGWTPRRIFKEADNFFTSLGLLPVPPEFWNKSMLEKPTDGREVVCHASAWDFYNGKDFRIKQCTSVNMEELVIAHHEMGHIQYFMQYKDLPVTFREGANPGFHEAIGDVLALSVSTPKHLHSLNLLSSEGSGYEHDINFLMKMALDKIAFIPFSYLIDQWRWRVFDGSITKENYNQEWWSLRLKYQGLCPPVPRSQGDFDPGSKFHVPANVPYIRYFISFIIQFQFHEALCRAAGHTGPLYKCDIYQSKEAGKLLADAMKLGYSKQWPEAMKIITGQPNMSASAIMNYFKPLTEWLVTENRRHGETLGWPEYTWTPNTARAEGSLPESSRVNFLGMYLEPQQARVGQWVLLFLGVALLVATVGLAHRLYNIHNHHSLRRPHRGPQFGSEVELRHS
In words: ACE inhibition activity using rat lung (Experiment B-2). It counts as biochemical. The settings on record: rat lung membrane fraction, borate buffer. How it is done: The ACE inhibition activity was determined by using a membrane fraction prepared from rat lung in accordance with the method of Wu-Wong et al. (Characterization of Endthelin Converting Enzyme in Rat Lung., Junshyum R. Wu-Wong, Gerald, P. Budzik, Edward M. Devine and Terry J. Opgenorth, Biochem. Biophys. Res. Commun., 1990, 171, 1291-1296.).
The ACE activity was determined with the use of a modification (modified to a borate buffer, p11 8.3) of the method of Cushman and Cheung (Spectrophotometric Assay and Properties of the Angiotensin-Converting Enzyme of Rabbit Lung., Cushman, D. W. and Cheung H. S., 1971, 20, […].).
In the presence of ACE, the hippurate liberated from hippuryl-histidine-leucine (Hippuryl-His-Leu (PeptideInstitute Inc., Japan)) was extracted with ethyl acetate and then the absorbance was measured at a wavelength of 228 nm.
With respect to the ACE inhibition activity, the inhibitor was added to the reaction system as described above in such a manner as to give the final concentrations of 1, 3, 10, 30, 100, 300 and 1000 nM, an inhibition curve was prepared, and then the concentration at which 50% inhibition was achieved was taken as IC50.

In data set [2] the target is T2, NEP (Rattus norvegicus, UniProt P07861).
T2 sequence (P07861 1-750): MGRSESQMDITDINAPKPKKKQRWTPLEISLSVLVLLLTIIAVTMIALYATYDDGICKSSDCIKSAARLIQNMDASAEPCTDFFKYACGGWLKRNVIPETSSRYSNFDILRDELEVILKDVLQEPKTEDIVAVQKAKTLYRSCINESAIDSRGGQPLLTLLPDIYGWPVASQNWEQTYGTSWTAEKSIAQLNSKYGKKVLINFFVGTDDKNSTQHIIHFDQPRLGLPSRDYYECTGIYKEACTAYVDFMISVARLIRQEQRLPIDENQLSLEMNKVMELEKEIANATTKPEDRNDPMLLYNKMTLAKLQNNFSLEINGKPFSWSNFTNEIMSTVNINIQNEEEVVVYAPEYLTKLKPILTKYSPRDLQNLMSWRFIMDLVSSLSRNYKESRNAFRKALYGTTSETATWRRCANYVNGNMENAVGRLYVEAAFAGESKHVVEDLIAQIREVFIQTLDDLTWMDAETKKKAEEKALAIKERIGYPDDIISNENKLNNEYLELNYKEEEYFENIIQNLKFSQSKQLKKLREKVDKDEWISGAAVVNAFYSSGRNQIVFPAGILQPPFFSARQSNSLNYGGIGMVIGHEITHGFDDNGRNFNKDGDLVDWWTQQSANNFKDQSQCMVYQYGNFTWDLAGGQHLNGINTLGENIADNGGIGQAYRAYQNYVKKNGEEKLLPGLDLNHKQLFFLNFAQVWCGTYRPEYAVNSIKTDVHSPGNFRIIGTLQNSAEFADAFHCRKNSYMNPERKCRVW
Briefly: NEP inhibition activity using rat renal cortex (Experiment B-1). It counts as biochemical. The arrangement: membrane fraction prepared from rat renal cortex; from tissue; host or cells: rat renal cortex, membrane fraction (method of Booth and Kenny). The settings on record: rat renal cortex membrane fraction. The procedure:
The NEP activity was determined by using a membrane fraction prepared from rat renal cortex in accordance with the method of Booth and Kenay (A Rapid Metod for the Purificaton of Microvilli from Rabbit Kidney., Andrew G. Booth and A. John Kenny, Biochem j., 1974, 142, 575-581.).
The NEP activity was determined by the following manner in accordance with the method of Orlowsky and Wilk (Purification and Specificity of a Membrane-Bound Metalloendpeptldase from Bovine Pituitaries., Marian Orlowsky and Shrwin Wilk, Biochemistry, 1981, 20, 4942-4950.).
As a substrate, benzoyl-glycine-arginine-arginine-2-naphthylamide (benzoyl-Gly-Arg-Arg-2-naphthylamide (Nova Biochem, Switzerland)) was used. In the presence of an NEP enzyme preparation and excessive leucine aminopeptidase (sigma chemical Co., U.S.A.), the liberated naphthylamine was made to undergo color development with first garnet (Sigma chemical Co., U.S.A.), followed by the measurement of the absorbance at a wavelength of 540 nm.
With respect to the NEP inhibition activity, the inhibitor was added to the reaction system as described above in such a manner as to give the final concentrations of 1, 3, 10, 30, 100, 300 and 1000 nM, an inhibition curve was prepared, and then the concentration at which 50% inhibition was achieved was taken as IC50.

The target of data set [3] is T2, NEP. In words: NEP inhibition activity (Experiment E-1). The settings on record: rat renal cortex membrane fraction. It counts as biochemical. The arrangement: membrane fraction prepared from rat renal cortex; from tissue; host or cells: rat renal cortex, membrane fraction (method of Booth and Kenny). How it is done:
As a source of the enzyme NEP, a membrane fraction prepared from rat renal cortex in accordance with the method of Booth and Kenny (A Rapid Method for the Purification of Microvilli from Rabbit Kidney., Andrew G. Booth and A. John Kenny, Biochem. j., 1974, 142,575-581.) was employed. The NEP activity was determined in accordance with the method of Orlowsky and Wilk (Purification and Specificity of a Membrane-Bound Metalloendpeptidase from Bovine Pituitaries., Marian Orlowsky and Shrwin Wilk, Biochemistry, 1981, 20, 4942-4950.). Now the procedure will be briefly described.
As a substrate, benzoyl-glycyl-arginyl-arginyl-2-naphthylamide (benzoyl-Gly-Arg-Arg-2 naphthylamide (Nova Biochem, Switzerland)) was used. In the presence of an NEP enzyme preparation and excessive leucine aminopeptidase (sigma chemical Co., U.S.A.), the liberated naphthylamine was made to undergo color development with first garnet (Sigma chemical Co., U.S.A.), followed by the measurement of the absorbance at a wavelength of 540 nm.
(§1) To determine the NEP inhibition activity and the ACE inhibition activity, the inhibitor was added to the assay systems of both enzyme activities as described above in such a manner as to give the final concentrations of 1, 3, 10, 30, 100, […] and 1000 nM and inhibition curves were prepared. Then the concentration at which 50% inhibition was achieved was taken as IC50.

The next data set can be described thus: in vivo. The conditions noted are these: rat, in vivo; for bioavailability: po. From the text:
Then changes in the blood level of each medicament were monitored with the lapse of time by using liquid chromatography.

The target of data set [4] is T1, ACE. In words: ACE inhibition activity (Experiment E-1). The conditions noted are these: rat lung membrane fraction, pH 8.3. It counts as biochemical. How it is done: As a source of the enzyme ACE, a membrane fraction prepared from rat lung in accordance with the method of Wu-Wong et al. (Characterization of Endthelin Converting Enzyme in Rat Lung., Jinshyum R. Wu-Wong, Gerald, P. Budzik, Edward M. Devine and Terry J. Opgenorth, Biochem. Biophys. Res. Commun., 1990, 171, 1291-1296.) was used. The ACE activity was determined with the use of a modification (modified to a borate buffer pH 8.3) of the method of Cushman and Cheung (Spectrophotometric Assay and Properties of the Angiotensin-Converting Enzyme of Rabbit Lung., Cushman D. W. and Cheung H. S., 1971, 20, 1637-1648.). Now the procedure will be briefly described.
In the presence of ACE, the hippurate liberated from hippuryl-histidyl-leucine (Hippuryl-His-Leu (PeptideInstitute Inc., Japan)) was extracted with ethyl acetate and then the absorbance was measured at a wavelength of 228 nm.
as §1

pIC50: −log10 of the molar value.

The pIC50 is the negative decadic logarithm of the IC50, by convention in mol/L. As usually defined, the bioavailability is dose-corrected exposure relative to a reference, in per cent. Higher therefore signals good availability.

As to `CCOC(=O)C1CCCC2c3sccc3CC(NC(=O)[C@H](Cc3ccccc3)SC(C)=O)C(=O)N12` (single isomer, unassigned) [Example B-7], the figures for the pIC50 against ACE [1] and against NEP [2] were 7.22 and 7.26, respectively.

Turning to `O=C(N[C@H]1Cc2sccc2[C@H]2CCC[C@@H](C(=O)O)N2C1=O)[C@@H](S)Cc1ccccc1` [Example B-3, [5S-[5α,8α(R*),11αβ]]-5-[[(S)-2-Mercapto-1-oxo-3-phenylpropyl]amino]-6-oxo-4,5,6,8,9,10,11,11a-octahydropyrido[1,2-a]thieno[3,2c]azepine-8-carboxylic acid], the values for the pIC50 on ACE [1] and on NEP [2] were 7.80 and 8.07, respectively.

`O=C(O)C1CCCC2c3sccc3CC(NC(=O)[C@@H](S)Cc3ccccc3)C(=O)N12` (stereo partly drawn) [Example B-8, 5-[(S)-2-Mercapto-1-oxo-3-phenylpropyl]amino-6-oxo-4,5,6,8,9,10,11,11a-octahydro[1,2-a]thieno-[2,3-c]azepine-8-carboxylic acid]: the pIC50 at ACE [1] was 7.05; at NEP [2], 7.14.

As to `O=C(N[C@H]1Cc2ccc(-c3ccccc3)cc2[C@H]2CCC[C@@H](C(=O)O)N2C1=O)[C@@H](S)Cc1ccccc1` [Example E-6, [4S-[4α,7α(R*),12bβ]]-7-[(S)-2-Mercapto-3-phenylpropionylamino]-6-oxo-11-phenyl-1,2,3,4,6,7,8,12b-octahydropyrido[2,1-a][2]benzazepine-4-carboxylic acid], the negative logarithm of the IC50 (pIC50) was 7.55 at NEP [3] and 8.00 against ACE [4]. For the same molecule, in “in vivo”, the oral absorbability result is on record as “superior in oral absorbability to the comparative compound E-1”. Besides, the bioavailability in the data set “in vivo” (10 mg/kg) was determined as 18.8%; in “in vivo” (30 mg/kg), 24.6%.

The record behind these values is US5679671A, “Amino acid derivative” (Eisai Co., Ltd., priority 1993, dated 1997).
